The source of these data is ChEMBL document CHEMBL1201862, “PubChem BioAssay data set” (2004).

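Exposure lasted 48 hours, with cells grown in 96-well plates and compounds tested at five concentrations. GI50 is the concentration that inhibits growth by half.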 Active and inactive are the calls of the source. No stated cut-off is given here; in the data, active = GI50 up to about 1.1 µM and inactive = higher. Some results are limits rather than exact numbers.

Among the test systems are MOLT-4; SK-MEL-28; SNB-19; KM12; OVCAR-3; HCC 2998; UACC-257; HOP-92; HT-29; HCT-15; OVCAR-4; EKVX; Malme-3M; OVCAR-8; SF-295; SR; NCI-H226; NCI-H23; COLO 205.
What all share (test): inhibition of tumour cell growth, NCI panel, 48 h

Consider `CN(C)CCNc1ccccn1`, for which the GI50 with MOLT-4, in the assay with SK-MEL-28, in the assay with SNB-19, in the assay on KM12, in the assay on OVCAR-3 and in the assay on HCC 2998 was > 100 µM (inactive) throughout. Moreover, the GI50 in the assay with UACC-257 was > 100 µM (inactive); in the assay with HOP-92 it was > 100 µM (inactive); in the assay on HT-29, > 100 µM (inactive); with HCT-15 it was more than 100 µM; in the assay with OVCAR-4 it was > 100 µM (inactive); in the assay with EKVX, > 100 µM (inactive). Also, the GI50 with Malme-3M, in the assay with OVCAR-8, with SF-295, in the assay with SR, in the assay on NCI-H226 and in the assay on NCI-H23 was > 100 µM (inactive) in each case.

On to `CCOC(=O)Cn1sc2ncc([N+](=O)[O-])cc2c1=O`, for which the GI50 with MOLT-4 was 2.86 µM (inactive); in the assay with SK-MEL-28 it was 15.1 µM (inactive); with KM12, 18.5 µM (inactive); in the assay with OVCAR-3, 16.8 µM (inactive); in the assay with HCC 2998, 16.4 µM (inactive); with UACC-257, 17.1 µM (inactive). For the same molecule, the GI50 in the assay on COLO 205 was 13 µM (inactive); with HOP-92 it was 13.3 µM (inactive); in the assay with HT-29, 16.2 µM (inactive); with HCT-15 it was 16.4 µM; in the assay with OVCAR-4, 18.8 µM (inactive); with EKVX, 27.9 µM (inactive). Besides, the GI50 is 17.9 µM (inactive) in the assay with Malme-3M; 16.3 µM (inactive) in the assay on OVCAR-8; 18.9 µM (inactive) in the assay on SF-295; 4.02 µM (inactive) with SR; > 100 µM (inactive) in the assay with NCI-H226; 17.9 µM (inactive) in the assay with NCI-H23.

As for `COc1cc(OC)cc(Oc2nc3cc(F)c(F)cc3nc2-c2ccccc2)c1`, the GI50 in the assay on MOLT-4, in the assay with SK-MEL-28, in the assay on SNB-19, in the assay on KM12, with OVCAR-3 and in the assay with UACC-257 was > 100 µM (inactive) throughout. Also, the GI50 was > 100 µM (inactive) with COLO 205; > 100 µM (inactive) in the assay on HOP-92; > 100 µM (inactive) in the assay with HT-29; more than 100 µM in the assay on HCT-15; > 100 µM (inactive) with OVCAR-4; > 100 µM (inactive) in the assay on EKVX. Also, the GI50 in the assay on Malme-3M, in the assay on OVCAR-8, in the assay with SF-295, in the assay on SR, in the assay on NCI-H226 and with NCI-H23 was > 100 µM (inactive) each time.

As for `CC(=O)OCCOCn1cc(C=O)c2ccccc21`, the GI50 in the assay on MOLT-4, with SK-MEL-28, with SNB-19, in the assay with KM12, with OVCAR-3 and in the assay with HCC 2998 was > 100 µM (inactive) in each case. Also, the GI50 was > 100 µM (inactive) in the assay on UACC-257; > 100 µM (inactive) in the assay with COLO 205; > 100 µM (inactive) in the assay with HOP-92; > 100 µM (inactive) in the assay with HT-29; more than 100 µM in the assay on HCT-15; > 100 µM (inactive) in the assay with EKVX. Further, the GI50 with Malme-3M, in the assay on OVCAR-8, in the assay on SF-295, with SR and with NCI-H23 was > 100 µM (inactive) in each case.

With `COc1cccc(NC(=O)CC(=O)NN)c1`, the GI50 with MOLT-4, with SK-MEL-28, with SNB-19, in the assay with KM12, in the assay with OVCAR-3 and in the assay with UACC-257 was > 100 µM (inactive) in each case. The GI50 with COLO 205 was > 100 µM (inactive); in the assay on HOP-92, > 100 µM (inactive); with HT-29, > 100 µM (inactive); in the assay on HCT-15, more than 100 µM; with OVCAR-4, > 100 µM (inactive); in the assay on EKVX, > 100 µM (inactive). In addition, the GI50 in the assay with Malme-3M, with OVCAR-8, in the assay with SF-295, in the assay with SR, with NCI-H226 and in the assay with NCI-H23 was > 100 µM (inactive) in each case.

In the case of `CCOC(=O)C(C)(C)/C=C\C(Cl)=C(Cl)Cl`, the GI50 in the assay on MOLT-4, with SK-MEL-28, in the assay on SNB-19, in the assay with KM12, in the assay with OVCAR-3 and in the assay on HCC 2998 was > 100 µM (inactive) in each case. For the same molecule, the GI50 with UACC-257, with COLO 205, in the assay with HOP-92, with HT-29, with EKVX and in the assay with Malme-3M was > 100 µM (inactive) throughout. Also, the GI50 in the assay with OVCAR-8, in the assay with SF-295, with SR, in the assay with NCI-H226 and in the assay with NCI-H23 was > 100 µM (inactive) throughout.

With `COc1ccc2nc3c(C)cc4ccccc4n3c2c1`, the GI50 was 23 µM (inactive) in the assay on MOLT-4; > 100 µM (inactive) with SK-MEL-28; > 100 µM (inactive) in the assay on SNB-19; > 100 µM (inactive) with KM12; 71 µM (inactive) with OVCAR-3; > 100 µM (inactive) in the assay on HCC 2998. In addition, the GI50 in the assay with UACC-257 was > 100 µM (inactive); with COLO 205 it was > 10 µM (inactive); with HOP-92 it was 50.8 µM (inactive); in the assay on HT-29 it was 55 µM (inactive); in the assay on HCT-15, 56.5 µM; in the assay with EKVX it was 19.2 µM (inactive). The GI50 with Malme-3M was > 100 µM (inactive); in the assay on OVCAR-8 it was 72.1 µM (inactive); with SF-295, 78.7 µM (inactive); in the assay on SR it was 50.2 µM (inactive); in the assay with NCI-H226, > 100 µM (inactive); in the assay with NCI-H23 it was > 100 µM (inactive).

As to `COC(=O)[C@H]1ON2O[C@H](OC3CCCC[C@@H]3c3ccccc3)C[C@@H]3CC[C@H]1[C@@]32C` (some centres undefined), the GI50 with MOLT-4 is 54.3 µM (inactive); in the assay on SK-MEL-28, > 100 µM (inactive); with SNB-19, > 100 µM (inactive); with KM12, 95.9 µM (inactive); in the assay with HCC 2998 it was > 100 µM (inactive); in the assay with UACC-257 it was > 100 µM (inactive). For the same molecule, the GI50 with COLO 205 was 91.4 µM (inactive); with HOP-92 it was 81.7 µM (inactive); in the assay on HT-29, 51.8 µM (inactive); in the assay with HCT-15 it was 89.9 µM; in the assay on OVCAR-4 it was > 100 µM (inactive); in the assay with EKVX it was 92.9 µM (inactive). The GI50 in the assay with Malme-3M was > 100 µM (inactive); in the assay with OVCAR-8, > 100 µM (inactive); in the assay on SF-295, > 100 µM (inactive); in the assay with SR, 72.9 µM (inactive); in the assay on NCI-H226, 49.4 µM (inactive); in the assay with NCI-H23, > 100 µM (inactive).

For `C=C(C)[C@H]1C=C[C@@H](OC(=O)c2cccnc2)[C@@]23CO[C@@](C)([C@H](OC(=O)c4cccnc4)[C@@]4(OC(C)=O)C[C@H](C)[C@H](OCCC)[C@@H]4[C@H]2OC(C)=O)[C@H]13`, the GI50 is 7.1 µM (inactive) in the assay with MOLT-4; > 15 µM (inactive) with SNB-19; > 15 µM (inactive) in the assay on KM12; > 15 µM (inactive) with OVCAR-3; > 15 µM (inactive) in the assay with HCC 2998; > 15 µM (inactive) with UACC-257. The GI50 in the assay with COLO 205 is 8.09 µM (inactive); in the assay with HOP-92 it was > 15 µM (inactive); in the assay with HCT-15 it was more than 15 µM; in the assay with OVCAR-4 it was 10.3 µM (inactive); in the assay with EKVX, > 15 µM (inactive); in the assay on OVCAR-8, > 15 µM (inactive). Further, the GI50 in the assay with SF-295 is 13.4 µM (inactive); in the assay with SR, 11.9 µM (inactive); in the assay with NCI-H226 it was > 15 µM (inactive); in the assay on NCI-H23, > 15 µM (inactive).

With `Cc1ccccc1S(=O)(=O)OC1NS(=O)(=O)c2ccccc21` (centres undefined), the GI50 in the assay with MOLT-4, with SK-MEL-28, in the assay with SNB-19, in the assay on KM12, in the assay on OVCAR-3 and in the assay with HCC 2998 was > 100 µM (inactive) each time. Moreover, the GI50 was > 100 µM (inactive) in the assay with UACC-257; > 100 µM (inactive) in the assay with COLO 205; > 100 µM (inactive) in the assay on HOP-92; > 100 µM (inactive) with HT-29; more than 100 µM in the assay with HCT-15; > 100 µM (inactive) with OVCAR-4. Further, the GI50 with EKVX, in the assay on Malme-3M, in the assay with OVCAR-8, in the assay on SF-295, with SR and in the assay with NCI-H23 was > 100 µM (inactive) in each case.

As for `Cc1[nH]c(-c2ccccc2)c2nc(N(C)C)oc(=O)c12`, the GI50 in the assay with MOLT-4, in the assay with SK-MEL-28, in the assay with SNB-19, in the assay on KM12, in the assay on HCC 2998 and in the assay on UACC-257 was > 100 µM (inactive) in each case. The GI50 in the assay with COLO 205 is > 100 µM (inactive); in the assay with HOP-92, > 100 µM (inactive); in the assay with HT-29 it was > 100 µM (inactive); in the assay on HCT-15, more than 100 µM; with OVCAR-4, > 100 µM (inactive); in the assay with EKVX, > 100 µM (inactive). For the same molecule, the GI50 with Malme-3M, with OVCAR-8, with SF-295, in the assay with SR, with NCI-H226 and with NCI-H23 was > 100 µM (inactive) in each case.
